Measured values reported in US20150316552A1, “Human Notch Receptor Mutations and Their Use” (OncoMed Pharmaceuticals, Inc., priority 2011, published 2015).
“Also recorded” adds a separate entry of the source. Square brackets hold non-standard residues; d marks the D form. Peptide text beside a SMILES is read from it. * marks the point of attachment. Nle = CCCC[C@H](N)C(=O)O; Cbz = O=C(OCc1ccccc1)*

How the values were obtained:
OMP-B37 breast tumors = assay: OMP-B37 breast tumor xenograft, tumor growth; assay type: in vivo, NOD/SCID mice
Protocol: Dissociated lineage depleted OMP-B37 p4 tumor cells were re-suspended in injection media (PBS and 0.5× matrigel) and injected subcutaneously into the right flank of 6-7 week old female NOD/SCID mice (27,000 cells/mouse). Mice were monitored weekly and tumors were allowed to grow until they were approximately 80 mm^3 (49 days after injection). Mice were randomized into two treatment groups (n=11 mice/group) and were dosed once a week with 15 mg/kg control antibody, or 20 mg/kg 59R5, an anti-NOTCH2/3 antibody (FIG. 5). Tumor growth was monitored by caliper measurement once a week.
(§1) Activity of anti-NOTCH2/3 in combination with Taxol in OMP-B37 breast tumor. The anti-NOTCH2/3 antibody 59R5, taxol, or a combination of 59R5 and taxol were administered to OMP-B37 xenograft mice. Initially, B37 p2 tumor cells were injected subcutaneously into the right flank of 6-7 week old female NOD/SCID mice. Mice were monitored weekly and tumors were allowed to grow until they were approximately 80 mm^3 Mice were then administered a control antibody, the 59R5 anti-NOTCH2/3 antibody, taxol or a combination of 59R5 anti-NOTCH2/3 antibody and taxol (FIG. 6). Tumor growth was monitored by caliper measurement once a week.

E-cadherin = E-cadherin expression in treated OMP-B37 tumors; assay type: in vivo, NOD/SCID mice; conditions: OMP-B37 xenograft; FIG. 6B
Protocol: as §1

OMP-C31 colon tumor = OMP-C31 colon tumor model, tumor growth; assay type: in vivo, Nod-Scid mice; conditions: 10 mg/kg IP weekly, p=0.0005; FIG. 15
Protocol: In order to test the effect of the 59R5 anti-NOTCH2/3 antibody on a tumor which harbors an activating mutation in NOTCH3, the OMP-C31 colon tumor model was utilized. 5,000 OMP-C31 colon tumor cells were injected sub-cutaneously in Nod-Scid mice. Dosing was initiated two days after tumor cell injection. Tumor bearing mice (n=10 group) were treated with either control antibody (1B7.11) or 59R5 anti-NOTCH2/3 antibody. Antibodies were dosed by IP injection at 10 mg/kg, weekly, for the duration of the experiment. Tumor volumes were measured on the indicated days. The data is plotted as the mean+SEM (FIG. 15).

NOTCH3.ICD = assay: NOTCH3 ICD IHC of treated OMP-B37 breast tumors; assay type: in vivo, mice; conditions: OMP-B37 xenograft; FIG. 17; listed as OMP-59R5
Protocol: NOTCH3.ICD accumulation in OMP-B37 tumor cells comprising a NOTCH3 activating mutation following treatment with a NOTCH2/3 antagonist and/or chemotherapy was examined by IHC. Tumor samples were isolated from the OMP-B37 xenograft mice that were treated with OMP-59R5 anti-NOTCH2/3 antibody, taxol or a combination of OMP-59R5 and taxol as described in the second paragraph of Example 3 above. A NOTCH3 ICD (“N3.ICD”) rabbit monoclonal antibody was developed that binds to the cleavage site of NOTCH3 and detects activated NOTCH3 within the nucleus. NOTCH3 ICD IHC was performed on the tumor samples using the N3.ICD antibody and standard IHC protocols with antigen retrieval in Target Retrieval Solution pH 9 (DAKO), antibody incubation overnight at 4° C. and detection with peroxidase-based EnVision™+ polymer (DAKO) and DAB+ (DAKO). Statistical significance was determined by One Way ANOVA with Bonferroni adjustment.

medulloblastoma = conditions: cited from earlier work
T-ALL = conditions: O'Neil et al. 2006; cited from earlier work
[1] = tested on: Ras-transformed fibroblasts; conditions: cited from earlier work
OMP-B40 breast tumors = assay: OMP-B40 breast tumor xenograft, tumor growth; assay type: in vivo, NOD/SCID mice; conditions: antibodies 15 mg/kg i.p. twice a week, Taxol 20 mg/kg i.p. once a week; FIG. 3B
Protocol: B40 p3 tumor cells were injected subcutaneously into the left flank of 6-7 week old female NOD/SCID mice (300,000 cells/mouse). Mice were monitored weekly and tumors were allowed to grow until they were approximately 140 mm^3 (78 days after injection). Mice were randomized into five treatment groups and treated with control antibody, or different doses (0.3 mg/kg, 1 mg/kg, 3 mg/kg, 10 mg/kg) of the OMP-52M51 humanized anti-NOTCH1 antibody. The antibodies were dosed i.p. twice a week. Tumor growth was monitored by caliper measurement once a week.
Dissociated OMP-B40 p3 tumor cells were re-suspended in injection media (PBS containing 100 ng/mL VEGF and 100 ng/mL bFGF and 0.5× matrigel) and injected subcutaneously into the left flank of 6-7 week old female NOD/SCID mice (300,000 cells/mouse). Mice were monitored weekly and tumors were allowed to grow until they were approximately 140 mm^3 (78 days after injection). Mice were randomized into four treatment groups (n=10 mice/group) and treated with control antibody, anti-NOTCH1 antibody OMP-52M51, taxol or a combination of OMP-52M51 with taxol. The antibodies were dosed i.p. twice a week at 15 mg/kg and Taxol was dosed i.p. once a week at 20 mg/kg. Tumor growth was monitored by caliper measurement once a week.
As described in Example 2, three hundred thousand OMP-B40 tumor cells were injected subcutaneously and allowed to grow to a mean volume of […] At that point, 78 days after study start, mice were randomized and treatment started. Mice received either 15 mg/kg control antibody or 15 mg/kg OMP-52M51 humanized antibody twice weekly, with or without 20 mg/kg paclitaxel once weekly, all administered by IP injection. Mean±SEM, n=10 animals per group.

[2] = tested on: melanoma and Kaposi sarcoma; conditions: Curry et al. 2005; cited from earlier work

Compound: 59R5: anti-NOTCH2/3 antibody, ATCC PTA-10170; heavy chain variable region SEQ ID NO:30, light chain variable region SEQ ID NO:32
- tumor volume reduction (OMP-B37 breast tumors; 20 mg/kg once a week, after 5 weeks of treatment, FIG. 5): 56.6%
- tumor volume in xenografted animals (in words) (OMP-B37 breast tumors; 59R5, taxol or combination study, FIG. 6A): greatly decreased tumor volume
- tumor volume compared to control antibody (in words) (OMP-B37 breast tumors; FIG. 5): greatly decreased tumor volume
- expression of E-cadherin (E-cadherin): increases expression of E-cadherin
- tumor growth relative to control antibody treated group (OMP-C31 colon tumor): inhibited OMP-C31 tumor growth
- NOTCH3.ICD accumulation relative to PBS treated cells (NOTCH3.ICD): significantly inhibited NOTCH3.ICD accumulation; also recorded: blocks NOTCH3.ICD accumulation

Compound: C[C@H](NC(=O)Cc1cc(F)cc(F)c1)C(=O)N[C@H](C(=O)OC(C)(C)C)c1ccccc1 [DAPT, N—[N-(3,5-difluorophenacetyl)-L-alanyl]-S-phenylglycine t-butyl ester]
- medulloblastoma growth (medulloblastoma): marked reduction in medulloblastoma growth
- cell cycle arrest and apoptosis (T-ALL): induced G0-G1 cell cycle arrest and apoptosis

Compound: CCC(C)C(NC(=O)OCc1ccccc1)C(=O)NC(C=O)CC(C)C (stereo not drawn) [IL-X, cbz-IL-CHO] (Cbz-Ile-Leu-aldehyde; configuration not given here)
- antineoplastic activity [1]: NOTCH1-dependent antineoplastic activity

Compound: CC(=O)O[C@H]1C(=O)[C@@]2(C)[C@H]([C@H](OC(=O)c3ccccc3)[C@]3(O)C[C@H](OC(=O)[C@H](O)[C@@H](NC(=O)c4ccccc4)c4ccccc4)C(C)=C1C3(C)C)[C@]1(OC(C)=O)CO[C@@H]1C[C@@H]2O [Taxol, paclitaxel, reference compound]
- reduction in tumor volume versus control (OMP-B40 breast tumors): 57.3%

Compound: CCCC[C@@H](C=O)NC(=O)[C@H](CC(C)C)NC(=O)[C@H](CC(C)C)NC(=O)OCc1ccccc1 [z-Leu-leu-Nle-CHO] (Cbz-Leu-Leu-[Nle]-aldehyde)
- tumor growth [2]: suppress tumor growth
